Results as given in patent EP2881391A1, “Spiroindoline carbocycle derivatives and pharmaceutical compositions thereof” (Bayer Pharma Aktiengesellschaft, priority 2013, dated 2015).

Biological target: T1, human GnRH receptor (Homo sapiens, UniProt P30968)
T1 construct: line established by Prof; Thomas Gudermann; host or cells: CHO cells
T1 sequence (P30968 1-328): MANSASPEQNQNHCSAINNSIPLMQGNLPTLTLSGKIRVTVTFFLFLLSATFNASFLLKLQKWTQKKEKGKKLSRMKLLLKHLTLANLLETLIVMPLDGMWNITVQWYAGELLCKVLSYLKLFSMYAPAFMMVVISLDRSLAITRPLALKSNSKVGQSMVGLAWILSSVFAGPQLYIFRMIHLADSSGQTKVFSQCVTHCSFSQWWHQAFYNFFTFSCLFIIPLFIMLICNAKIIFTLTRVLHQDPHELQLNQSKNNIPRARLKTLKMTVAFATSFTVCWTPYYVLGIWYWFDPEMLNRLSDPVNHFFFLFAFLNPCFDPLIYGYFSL
Experiment: IP-One HTRF assay (inhibition of GnRH-R activation by buserelin)
Assay type: cell-based
Conditions: IP-One HTRF assay with buserelin (at EC80) stimulation; CHO cells stably expressing human GnRH receptor; tested 20 µM to 1 nM; read-out: Potency IC50
How it was run: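 CHO cells stably expressing human GnRH-R, pre-incubated 20 min at 22°C with compound (10 concentrations, 20 µM to 1 nM, duplicates), then stimulated 1 h at 37°C with buserelin or LHRH at EC50 or EC80 in pH 7.4 buffer with 50 mM LiCl. IP1 read by HTRF 665/620 nm ratio; IC50 by 4-parameter fit.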

Row | Structure (SMILES) | IC50
1 | COc1cccc(S(=O)(=O)N2c3ccc(C(=O)NCc4ncccc4Cl)cc3C3(CCC(O)(C(F)(F)F)CC3)C2C2CC2)c1 (stereo not shown) [Example 45, N-[(3-chloropyridin-2-yl)methyl]-2'-cyclopropyl-4-hydroxy-1'-[(3-methoxyphenyl)su Ifonyl]-4-(trifluoromethyl)-1',2'-dihydrospiro[cyclohexane-1,3'-indole]-5'-carboxamide] | 756 nM
2 | CS(=O)(=O)c1cccc(NC(=O)c2ccc3c(c2)C2(CCC(O)(C(F)(F)F)CC2)C(C2CC2)N3S(=O)(=O)c2ccc(F)cc2)c1 (stereo not shown) [Example 46, 2'-cyclopropyl-1'-[(4-fluorophenyl)sulfonyl]-4-hydroxy-N-[3-(methylsulfonyl)phenyl]-4-(trifluoromethyl)-1',2'-dihydrospiro[cyclohexane-1,3'-indole]-5'-carboxamide] | 540 nM
3 | NS(=O)(=O)c1cccc(NC(=O)c2ccc3c(c2)C2(CCC(O)(C(F)(F)F)CC2)C(C2CC2)N3S(=O)(=O)c2ccc(F)cc2)c1 (stereo not shown) [Example 47, 2'-cyclopropyl-1 [(4-fluorophenyl)sulfonyl]-4-hydroxy-N-(3-sulfamoylphenyl)-4-(trifluoromethyl)-1',2'-dihydrospiro[cyclohexane-1,3'-indole]-5'-carboxamide] | 618 nM
4 | O=C(O)c1cccc(S(=O)(=O)N2c3ccc(C(=O)Nc4ccon4)cc3C3(CCC(O)(C(F)(F)F)CC3)C2C2CC2)c1 (stereo not shown) [Example 48, 3-{[2'-cyclopropyl-4-hydroxy-5'-(1,2-oxazol-3-ylcarbamoyl)-4-(trifluoromethyl)spiro[cyclohexane-1,3'-indol]-1'(2'H)-yl]sulfonyl}benzoic acid] | 6710 nM
5 | O=C(O)c1cccc(S(=O)(=O)N2c3ccc(C(=O)NCc4ncc(C(F)(F)F)cc4F)cc3C3(CCC(O)(C(F)(F)F)CC3)C2C2CC2)c1 (stereo not shown) [Example 49, 3-{[2'-cyclopropyl-5'-({[3-fluoro-5-(trifluoromethyl)pyridin-2-yl]methyl}carbamoyl)-4-hydroxy-4-(trifluoromethyl)spiro[cyclohexane-1,3'-indol]-1'(2'H)-yl]sulfonyl}benzoic acid] | 4300 nM
6 | O=C(O)c1cccc(S(=O)(=O)N2c3ccc(C(=O)NCc4ncccc4C(F)(F)F)cc3C3(CCC(O)(C(F)(F)F)CC3)C2C2CC2)c1 (stereo not shown) [Example 50, 3-{[2'-cyclopropyl-4-hydroxy-4-(trifluoromethyl)-5'-({[3-(trifluoromethyl)pyridin-2-yl]methyl}carbamoyl)spiro[cyclohexane-1,3'-indol]-1'(2'H)-yl]sulfonyl}benzoic acid] | 3070 nM
7 | O=C(NC1(c2ccc(Cl)cc2)CC1)c1ccc2c(c1)C1(CCC(O)(C(F)(F)F)CC1)C(C1CC1)N2S(=O)(=O)c1ccc(F)cc1 (stereo not shown) [Example 51, N-[1-(4-chlorophenyl)cyclopropyl]-2'-cyclopropyl-1'-[(4-fluorophenyl)sulfonyl]-4-hydroxy-4-(trifluoromethyl)-1',2'-dihydrospiro[cyclohexane-1,3'-indole]-5'-carboxamide] | 551 nM
8 | O=C(Nc1cc[nH]n1)c1ccc2c(c1)C1(CCC(O)(C(F)(F)F)CC1)C(C1CC1)N2S(=O)(=O)c1ccc(F)cc1 (stereo not shown) [Example 52, 2'-cyclopropyl-1'-[(4-fluorophenyl)sulfonyl]-4-hydroxy-N-(1H-pyrazol-3-yl)-4-(trifluoromethyl)-1',2'-dihydrospiro[cyclohexane-1,3'-indole]-5'-carboxamide] | 716 nM
9 | O=C(NC1CCc2ccccc21)c1ccc2c(c1)C1(CCC(O)(C(F)(F)F)CC1)C(C1CC1)N2S(=O)(=O)c1ccc(F)cc1 (stereo not shown) [Example 53, 2'-cyclopropyl-N-(2,3-dihydro-1H-inden-1-yl)-1'-[(4-fluorophenyl)sulfonyl]-4-hydroxy-4-(trifluoromethyl)-1',2'-dihydrospiro[cyclohexane-1,3'-indole]-5'-carboxamide] | 611 nM
10 | O=C(Nc1cccc(C(F)(F)F)c1)c1ccc2c(c1)C1(CCC(O)(C(F)(F)F)CC1)C(C1CC1)N2S(=O)(=O)c1ccc(F)cc1 (stereo not shown) [Example 54, 2'-cyclopropyl-1 [(4-fluorophenyl)sulfonyl]-4-hydroxy-4-(trifluoromethyl)-N-[3-(trifluoromethyl)phenyl]-1',2'-dihydrospiro[cyclohexane-1,3'-indole]-5'-carboxamide] | 2320 nM
11 | O=C(Nc1cccc(Cl)c1)c1ccc2c(c1)C1(CCC(O)(C(F)(F)F)CC1)C(C1CC1)N2S(=O)(=O)c1ccc(F)cc1 (stereo not shown) [Example 55, N-(3-chlorophenyl)-2'-cyclopropyl-1'-[(4-fluorophenyl)sulfonyl]-4-hydroxy-4-(trifluoromethyl)-1',2'-dihydrospiro[cyclohexane-1,3'-indole]-5'-carboxamide] | 705 nM
12 | O=C(Nc1ccon1)c1ccc2c(c1)C1(CCC(O)(C(F)(F)F)CC1)C(C1CC1)N2S(=O)(=O)c1ccc(F)cc1 (stereo not shown) [Example 56, 2'-cyclopropyl-1' [(4-fluorophenyl)sulfonyl]-4-hydroxy-N-(1,2-oxazol-3-yl)-4-(trifluoromethyl)-1',2'-dihydrospiro[cyclohexane-1,3'-indole]-5'-carboxamide] | 286 nM
13 | O=C(Nc1ccon1)c1ccc2c(c1)C1(CCC(O)(C(F)(F)F)CC1)C(C1CC1)N2S(=O)(=O)c1cccc(C(=O)N2CCC2)c1 (stereo not shown) [Example 57, 1'-{[3-(azetidin-1-ylcarbonyl)phenyl]sulfonyl}-2'-cyclopropyl-4-hydroxy-N-(1,2-oxazol-3-yl)-4-(trifluoromethyl)-1',2'-dihydrospiro[cyclohexane-1,3'-indole]-5'-carboxamide] | 1220 nM
14 | O=C(Nc1cncc(C(F)(F)F)c1)c1ccc2c(c1)C1(CCC(O)(C(F)(F)F)CC1)C(C1CC1)N2S(=O)(=O)c1ccc(F)cc1 (stereo not shown) [Example 58, 2'-cyclopropyl-1'-[(4-fluorophenyl)sulfonyl]-4-hydroxy-4-(trifluoromethyl)-N-[5-(trifluoromethyl)pyridin-3-yl]-1',2'-dihydrospiro[cyclohexane-1,3'-indole]-5'-carboxamide] | 3120 nM
15 | O=C(NCC1CC1)c1ccc2c(c1)C1(CCC(O)(C(F)(F)F)CC1)C(C1CC1)N2S(=O)(=O)c1ccc(F)cc1 (stereo not shown) [Example 59, 2'-cyclopropyl-N-(cyclopropylmethyl)-1'-[(4-fluorophenyl)sulfonyl]-4-hydroxy-4-(trifluoromethyl)-1',2'-dihydrospiro[cyclohexane-1,3'-indole]-5'-carboxamide] | 690 nM
16 | O=C(NCc1ccc(F)cc1Cl)c1ccc2c(c1)C1(CCC(O)(C(F)(F)F)CC1)C(C1CC1)N2S(=O)(=O)c1ccc(F)cc1 (stereo not shown) [Example 60, N-(2-chloro-4-fluorobenzyl)-2'-cyclopropyl-1'-[(4-fluorophenyl)sulfonyl]-4-hydroxy-4-(trifluoromethyl)-1',2'-dihydrospiro[cyclohexane-1,3'-indole]-5'-carboxamide] | 432 nM
17 | O=C(NCC1CCCCC1)c1ccc2c(c1)C1(CCC(O)(C(F)(F)F)CC1)C(C1CC1)N2S(=O)(=O)c1ccc(F)cc1 (stereo not shown) [Example 61, N-(cyclohexylmethyl) -2'-cyclopropyl-1'-[(4-fluorophenyl)sulfonyl]-4-hydroxy-4-(trifluoromethyl)-1',2'-dihydrospiro[cyclohexane-1,3'-indole]-5'-carboxamide] | 741 nM
18 | O=C(NCc1ccccc1Cl)c1ccc2c(c1)C1(CCC(O)(C(F)(F)F)CC1)C(C1CC1)N2S(=O)(=O)c1ccc(F)cc1 (stereo not shown) [Example 62, N-(2-chlorobenzyl)-2'-cyclopropyl-1'-[(4-fluorophenyl)sulfonyl]-4-hydroxy-4-(trifluoromethyl)-1',2'-dihydrospiro[cyclohexane-1,3'-indole]-5'-carboxamide] | 253 nM
19 | O=C(NCc1ncc(C(F)(F)F)cc1F)c1ccc2c(c1)C1(CCC(O)(C(F)(F)F)CC1)C(C1CC1)N2S(=O)(=O)c1cccc(C(=O)N2CCC2)c1 (stereo not shown) [Example 63, 1'-{[3-(azetidin-1-ylcarbonyl)phenyl]sulfonyl}-2'-cyclopropyl-N-{[3-fluoro-5-(trifluoromethyl)pyridin-2-yl]methyl}-4-hydroxy-4-(trifluoromethyl)-1',2'-dihydrospiro[cyclohexane-1,3'-indole]-5'-carboxamide] | 3210 nM
20 | O=C(NCc1ncc(F)cc1Cl)c1ccc2c(c1)C1(CCC(O)(C(F)(F)F)CC1)C(C1CC1)N2S(=O)(=O)c1ccc(F)cc1 (stereo not shown) [Example 64, N-[(3-chloro-5-fluoropyridin-2-yl)methyl]-2'-cyclopropyl-1'-[(4-fluorophenyl)sulfonyl]-4-hydroxy-4-(trifluoromethyl)-1',2'-dihydrospiro[cyclohexane-1,3'-indole]-5'-carboxamide] | 519 nM
21 | O=C(NCc1ncccc1C(F)(F)F)c1ccc2c(c1)C1(CCC(O)(C(F)(F)F)CC1)C(C1CC1)N2S(=O)(=O)c1ccc(F)cc1 (stereo not shown) [Example 65, 2'-cyclopropyl-1'-[(4-fluorophenyl)sulfonyl]-4-hydroxy-4-(trifluoromethyl)-N-{[3-(trifluoromethyl)pyridin-2-yl]methyl}-1',2'-dihydrospiro[cyclohexane-1,3'-indole]-5'-carboxamide] | 311 nM
22 | O=C(NCc1ncccc1C(F)(F)F)c1ccc2c(c1)C1(CCC(O)(C(F)(F)F)CC1)C(C1CC1)N2S(=O)(=O)c1cccc(C(=O)N2CCC2)c1 (stereo not shown) [Example 66, 1'-{[3-(azetidin-1-ylcarbonyl)phenyl]sulfonyl}-2'-cyclopropyl-4-hydroxy-4-(trifluoromethyl)-N-{[3-(trifluoromethyl)pyridin-2-yl]methyl}-1',2'-dihydrospiro[cyclohexane-1,3'-indole]-5'-carboxamide] | 2180 nM
